Experimental data taken from article PMC9501633, “Synthesis, Characterisation and Mechanism of Action of Anticancer 3-Fluoroazetidin-2-ones” (Pharmaceuticals, 2022).
Values joined by “and” are separate entries in the source; they are usually repeats but may differ in a detail not shown here. Identical values can stand only once. Like-named read-outs stand apart in the source and are kept apart here.

Assays:
HOP-62 = assay: NCI 60 cell line screen, NSCLung; assay type: cell-based, human
HCT-15 = assay: NCI 60 cell line screen, Colon; assay type: cell-based, human
SN12C = assay: NCI 60 cell line screen, Renal; assay type: cell-based, human
SK-MEL-2 = assay: NCI 60 cell line screen, Melanoma; assay type: cell-based, human
OVCAR-4 = assay: NCI 60 cell line screen, Ovarian; assay type: cell-based, human
COLO 205 = assay: NCI 60 cell line screen, Colon; assay type: cell-based, human
HL-60(TB) = assay: NCI 60 cell line screen, Leukaemia; assay type: cell-based, human
T-47D = assay: NCI 60 cell line screen, Breast; assay type: cell-based, human
CCRF-CEM = assay: NCI 60 cell line screen, Leukaemia; assay type: cell-based, human
NCI/ADR-RES = assay: NCI 60 cell line screen, Ovarian; assay type: cell-based, human
HCC-2998 = assay: NCI 60 cell line screen, Colon; assay type: cell-based, human
M14 = assay: NCI 60 cell line screen, Melanoma; assay type: cell-based, human; conditions: for GI50: 5-dose, 48 h
K-562 = assay: NCI 60 cell line screen, Leukaemia; assay type: cell-based, human
NCI 60 cell line panel = assay: NCI 60 cell line screen, whole panel; assay type: cell-based; conditions: for GI50: read-out: MG-MID GI50
Procedure: The antiproliferative effects of selected compounds 33, 37 and 43 were initially evaluated in the NCI 60 cell line screen at 10 μM concentration (see Supplementary Materials Table S3). […] . […] .
Compound 33 was next selected for evaluation in the NCI 60 cell line five-dose screen. The GI50 (50% growth inhibition), TGI (total growth inhibition) and LC50 (50% lethal concentration) were determined in the NCI panel of 60 cell lines, using the sulphorhodamine B (SRB) protein assay (Table 5). The GI50 value provides the growth inhibition of the selected compound, while the cytotoxic effect is evaluated in the LC50 value. […] . […] . Glioblastoma is an aggressive and fast-growing brain tumour with a median survival time of 9–16 months from diagnosis, and these tumours quickly evolve resistance to temozolomide chemotherapy, which is the only FDA-approved treatment. […] . Further mechanistic and cellular studies were carried out and are described below.
aData obtained from NCI in vitro human tumour cell screen 1 dose assay (10 µM). 33 (NCI

EKVX = assay: NCI 60 cell line screen, NSCLung; assay type: cell-based, human
[1] = 5-dose assay, 48 h, mean-graph midpoint

COc1ccc(C2C(F)C(=O)N2c2cc(OC)c(OC)c(OC)c2)cc1F (centres unmarked) [Compound 33, 3-Fluoro-4-(3-fluoro-4-methoxyphenyl)-1-(3,4,5-trimethoxyphenyl)azetidin-2-one]
TGI (HOP-62; 5-dose, 48 h): >100 µM
GI50 (HOP-62; Homo sapiens, 5-dose, 48 h): 0.511 µM
inhibition at 10 µM (HOP-62; Homo sapiens, one dose 10 µM): 68.2%
Growth % (HOP-62; one dose 10 µM): 31.85%
TGI (HCT-15; 5-dose, 48 h): >100 µM
GI50 (HCT-15; Homo sapiens, 5-dose, 48 h): 0.0664 µM
inhibition at 10 µM (HCT-15; Homo sapiens, one dose 10 µM): 86.4%
Growth % (HCT-15; one dose 10 µM): 13.63%
TGI (SN12C; 5-dose, 48 h): >100 µM
GI50 (SN12C; Homo sapiens, 5-dose, 48 h): 0.482 µM
inhibition at 10 µM (SN12C; Homo sapiens, one dose 10 µM): 66.7%
Growth % (SN12C; one dose 10 µM): 33.29%
TGI (SK-MEL-2; 5-dose, 48 h): >100 µM
GI50 (SK-MEL-2; Homo sapiens, 5-dose, 48 h): 0.303 µM
inhibition at 10 µM (SK-MEL-2; Homo sapiens, one dose 10 µM): 41.2%
Growth % (SK-MEL-2; one dose 10 µM): 58.83%
TGI (OVCAR-4; 5-dose, 48 h): >100 µM
GI50 (OVCAR-4; Homo sapiens, 5-dose, 48 h): 0.966 µM
inhibition at 10 µM (OVCAR-4; Homo sapiens, one dose 10 µM): 45.1%
Growth % (OVCAR-4; one dose 10 µM): 54.92%
TGI (COLO 205; 5-dose, 48 h): 0.503 µM
GI50 (COLO 205; Homo sapiens, 5-dose, 48 h): 0.156 µM
CC50 (COLO 205; Homo sapiens, 5-dose, 48 h, read-out: LC50 (the source's name)): 8.23 µM
inhibition at 10 µM (COLO 205; Homo sapiens, one dose 10 µM): 168%
Growth % (COLO 205; one dose 10 µM): -68%
TGI (HL-60(TB); 5-dose, 48 h): 0.399 µM
GI50 (HL-60(TB); Homo sapiens, 5-dose, 48 h): 0.0805 µM
inhibition at 10 µM (HL-60(TB); Homo sapiens, one dose 10 µM): 115%
Growth % (HL-60(TB); one dose 10 µM): -14.69%
TGI (T-47D; 5-dose, 48 h): >100 µM
inhibition at 10 µM (T-47D; Homo sapiens, T47D, one dose 10 µM): 25.1%
Growth % (T-47D; one dose 10 µM): 74.94%
TGI (CCRF-CEM; 5-dose, 48 h): >100 µM
GI50 (CCRF-CEM; Homo sapiens, 5-dose, 48 h): 0.0471 µM
inhibition at 10 µM (CCRF-CEM; Homo sapiens, one dose 10 µM): 86.8%
Growth % (CCRF-CEM; one dose 10 µM): 13.16%
GI50 (NCI/ADR-RES; 5-dose, 48 h): 0.0424 µM
TGI (NCI/ADR-RES; 5-dose, 48 h): >100 µM
GI50 (NCI/ADR-RES; Homo sapiens, 48 h, 5-dose): 0.042 µM
inhibition at 10 µM (NCI/ADR-RES; Homo sapiens, one dose 10 µM): 91.6%
Growth % (NCI/ADR-RES; one dose 10 µM): 8.4%
TGI (HCC-2998; 5-dose, 48 h): >100 µM
GI50 (HCC-2998; Homo sapiens, 5-dose, 48 h): 0.406 µM
inhibition at 10 µM (HCC-2998; Homo sapiens, one dose 10 µM): 67.1%
Growth % (HCC-2998; one dose 10 µM): 32.93%
GI50 (M14): 0.0254 µM
GI50 (M14; Homo sapiens, M14, 48 h): 0.025 µM
inhibition at 10 µM (M14; Homo sapiens, one dose 10 µM): 98.1%
Growth % (M14; one dose 10 µM): 1.91%
GI50 (K-562; 5-dose, 48 h): 0.0383 µM
TGI (K-562; 5-dose, 48 h): >100 µM
GI50 (K-562; Homo sapiens, K562, 48 h, 5-dose, 48 h): 0.038 µM
inhibition at 10 µM (K-562; Homo sapiens, K562, one dose 10 µM): 90.5%
Growth % (K-562; one dose 10 µM): 9.45%
MG-MID TGI (NCI 60 cell line panel; [1]): 52.48 µM and 52.4 µM
GI50 (NCI 60 cell line panel; [1]): 0.223 µM
GI50 (NCI 60 cell line panel; Homo sapiens, 60 cell, 48 h, 5-dose assay, 48 h, mean-graph midpoint): 0.224 µM
inhibition at 10 µM (NCI 60 cell line panel; Homo sapiens, 60 cell, one dose 10 μM, mean over the 60 cell lines, read-out: mean growth inhibition): 76.3%
CC50 (NCI 60 cell line panel; Homo sapiens, 60 cell, 5-dose assay, 48 h, mean-graph midpoint, read-out: MG-MID LC50): 95.5 µM
CC50 (NCI 60 cell line panel; Homo sapiens, all cell lines except COLO 205 and SK-MEL-5, 5-dose, 48 h, read-out: LC50 (the source's name)): > 100 µM
mean Growth % (NCI 60 cell line panel; one dose 10 µM, mean over the cell lines): 23.66%
TGI (EKVX; 5-dose, 48 h): >100 µM
GI50 (EKVX; Homo sapiens, 5-dose, 48 h): 0.203 µM
inhibition at 10 µM (EKVX; Homo sapiens, one dose 10 µM): 27.8%
Growth % (EKVX; one dose 10 µM): 72.16%
